# Data published in ChEMBL document CHEMBL3885881, “DrugMatrix”.
# Species: Rattus norvegicus
# Assay: DrugMatrix - Regimen: Daily Repeat
# Assay type: toxicity, organism-based, Sprague-Dawley
# Set-up: regimen Daily Repeat, gender Male, age 6-8 weeks
# Conditions: in vivo, po, 35 mg/kg, route oral GAVAGE, dose level Low, vehicle .5 % CMC; for ABSOLUTE BASOPHIL / ABSOLUTE EOSINOPHIL / ABSOLUTE LYMPHOCYTE / ABSOLUTE MONOCYTE / ABSOLUTE SEGMENTED NEUTROPHIL / BASOPHIL / EOSINOPHIL / ERYTHROCYTE COUNT / HEMATOCRIT / HEMOGLOBIN / LEUKOCYTE COUNT / LYMPHOCYTE / MEAN CORPUSCULAR HEMOGLOBIN / MEAN CORPUSCULAR HEMOGLOBIN CONCENTRATION / MEAN CORPUSCULAR VOLUME / MONOCYTE / NEUTROPHIL / NUCLEATED RED BLOOD CELLS / PLATELET COUNT: tissue Blood; for ALANINE AMINOTRANSFERASE / ALBUMIN / ALKALINE PHOSPHATASE / ASPARTATE AMINOTRANSFERASE / BLOOD UREA NITROGEN / CARBON DIOXIDE / CHLORIDE / CHOLESTEROL / CREATINE PHOSPHOKINASE / CREATININE / GLUCOSE / LACTATE DEHYDROGENASE / LIPASE / PHOSPHORUS / POTASSIUM / SODIUM / TOTAL BILIRUBIN / TOTAL PROTEIN / URIC ACID: tissue Plasma
smiles,measurement,setting,value
COC(=O)C1=C(C)NC(C)=C(C(=O)OC)C1c1ccccc1[N+](=O)[O-] [NIFEDIPINE],ABSOLUTE BASOPHIL,"72 h, time 3 day",0 CELLS/uL
same,ABSOLUTE EOSINOPHIL,"72 h, time 3 day",0 CELLS/uL
same,ABSOLUTE LYMPHOCYTE,"72 h, time 3 day",17514.67 CELLS/uL
same,ABSOLUTE MONOCYTE,"72 h, time 3 day",172 CELLS/uL
same,ABSOLUTE SEGMENTED NEUTROPHIL,"72 h, time 3 day",1213.33 CELLS/uL
same,BASOPHIL,"72 h, time 3 day",0%
same,EOSINOPHIL,"72 h, time 3 day",0%
same,ERYTHROCYTE COUNT,"72 h, time 3 day",5.2 x10E6/uL
same,HEMATOCRIT,"72 h, time 3 day",33.43%
same,HEMOGLOBIN,"72 h, time 3 day",12.8 G/DL
same,LEUKOCYTE COUNT,"72 h, time 3 day",18.9 x10E3/uL
same,LYMPHOCYTE,"72 h, time 3 day",92.67%
same,MEAN CORPUSCULAR HEMOGLOBIN,"72 h, time 3 day",24.63 pg
same,MEAN CORPUSCULAR HEMOGLOBIN CONCENTRATION,"72 h, time 3 day",38.27 G/DL
same,MEAN CORPUSCULAR VOLUME,"72 h, time 3 day",64.3 fL
same,MONOCYTE,"72 h, time 3 day",1%
same,NEUTROPHIL,"72 h, time 3 day",6.33%
same,NUCLEATED RED BLOOD CELLS,"72 h, time 3 day",0.33 /100WBC
same,PLATELET COUNT,"72 h, time 3 day",1358.33 x10E3/uL
same,ALANINE AMINOTRANSFERASE,"72 h, time 3 day",46 u/L
same,ALBUMIN,"72 h, time 3 day",4.37 G/DL
same,ALKALINE PHOSPHATASE,"72 h, time 3 day",361.33 u/L
same,ASPARTATE AMINOTRANSFERASE,"72 h, time 3 day",91.33 u/L
same,BLOOD UREA NITROGEN,"72 h, time 3 day",21.67 mg/dL
same,CARBON DIOXIDE,"72 h, time 3 day",24 mmol/L
same,CHLORIDE,"72 h, time 3 day",106.33 MEQ/L
same,CHOLESTEROL,"72 h, time 3 day",90.67 mg/dL
same,CREATINE PHOSPHOKINASE,"72 h, time 3 day",276 u/L
same,CREATININE,"72 h, time 3 day",0.31 mg/dL
same,GLUCOSE,"72 h, time 3 day",142.67 mg/dL
same,LACTATE DEHYDROGENASE,"72 h, time 3 day",570 u/L
same,LIPASE,"72 h, time 3 day",11 u/L
same,PHOSPHORUS,"72 h, time 3 day",11.77 mg/dL
same,POTASSIUM,"72 h, time 3 day",6.88 MEQ/L
same,SODIUM,"72 h, time 3 day",148.6 MEQ/L
same,TOTAL BILIRUBIN,"72 h, time 3 day",0.2 mg/dL
same,TOTAL PROTEIN,"72 h, time 3 day",6.2 G/DL
same,URIC ACID,"72 h, time 3 day",1.67 mg/dL
same,ABSOLUTE BASOPHIL,"120 h, time 5 day",0 CELLS/uL
same,ABSOLUTE EOSINOPHIL,"120 h, time 5 day",0 CELLS/uL
same,ABSOLUTE LYMPHOCYTE,"120 h, time 5 day",11212.33 CELLS/uL
same,ABSOLUTE MONOCYTE,"120 h, time 5 day",196 CELLS/uL
same,ABSOLUTE SEGMENTED NEUTROPHIL,"120 h, time 5 day",1358.33 CELLS/uL
same,BASOPHIL,"120 h, time 5 day",0%
same,EOSINOPHIL,"120 h, time 5 day",0%
same,ERYTHROCYTE COUNT,"120 h, time 5 day",6.29 x10E6/uL
same,HEMATOCRIT,"120 h, time 5 day",40.53%
same,HEMOGLOBIN,"120 h, time 5 day",14.9 G/DL
same,LEUKOCYTE COUNT,"120 h, time 5 day",12.77 x10E3/uL
same,LYMPHOCYTE,"120 h, time 5 day",88.33%
same,MEAN CORPUSCULAR HEMOGLOBIN,"120 h, time 5 day",23.67 pg
same,MEAN CORPUSCULAR HEMOGLOBIN CONCENTRATION,"120 h, time 5 day",36.77 G/DL
same,MEAN CORPUSCULAR VOLUME,"120 h, time 5 day",64.4 fL
same,MONOCYTE,"120 h, time 5 day",1.33%
same,NEUTROPHIL,"120 h, time 5 day",10.33%
same,NUCLEATED RED BLOOD CELLS,"120 h, time 5 day",0 /100WBC
same,PLATELET COUNT,"120 h, time 5 day",1155 x10E3/uL
same,ALANINE AMINOTRANSFERASE,"120 h, time 5 day",57 u/L
same,ALBUMIN,"120 h, time 5 day",4.5 G/DL
same,ALKALINE PHOSPHATASE,"120 h, time 5 day",414.33 u/L
same,ASPARTATE AMINOTRANSFERASE,"120 h, time 5 day",79.67 u/L
same,BLOOD UREA NITROGEN,"120 h, time 5 day",19 mg/dL
same,CARBON DIOXIDE,"120 h, time 5 day",23 mmol/L
same,CHLORIDE,"120 h, time 5 day",104 MEQ/L
same,CHOLESTEROL,"120 h, time 5 day",81.67 mg/dL
same,CREATINE PHOSPHOKINASE,"120 h, time 5 day",210 u/L
same,CREATININE,"120 h, time 5 day",0.21 mg/dL
same,GLUCOSE,"120 h, time 5 day",163.67 mg/dL
same,LACTATE DEHYDROGENASE,"120 h, time 5 day",114.33 u/L
same,LIPASE,"120 h, time 5 day",10 u/L
same,PHOSPHORUS,"120 h, time 5 day",13.37 mg/dL
same,POTASSIUM,"120 h, time 5 day",7.57 MEQ/L
same,SODIUM,"120 h, time 5 day",147 MEQ/L
same,TOTAL BILIRUBIN,"120 h, time 5 day",0.27 mg/dL
same,TOTAL PROTEIN,"120 h, time 5 day",6.5 G/DL
same,URIC ACID,"120 h, time 5 day",2 mg/dL
